Experimental data taken from patent US10500219B2, “Compositions and methods for tissue regeneration” (ORBIS HEALTH SOLUTIONS LLC, priority 2012, dated 2019).

Test system: chronic Foot Rot
Test: Chronic Foot Rot with proliferative mass in a heifer (Example 25)
Type: in vivo, American Shorthorn heifer
Settings: injectable antibiotic for 7 days, before cream treatment
From the text: A two-year old female American Shorthorn heifer was presented with lameness and a proliferative mass (3″ in diameter)with associated swelling and large dense scab between the digits of the left hind foot diagnosed as chronic Foot Rot. […] After 4 months lameness reoccurred and the area again became inflamed. […] A surgical consultation determined that the area needed to be surgically excised under general anesthesia. Due to late term pregnancy, surgery was postponed until after delivery. While waiting for surgery, the cream of Example 18 was applied once daily by massaging the cream into the area between the digits. […] No surgery or further antibiotic therapy was anticipated. FIG. 11A depicts the infection in the left hind foot before treatment and FIG. 11B depicts the infected area after 3 weeks of treatment with the cream of Example 18.

For `CS(=O)(=O)c1ccc([C@@H](O)[C@@H](CF)NC(=O)C(Cl)Cl)cc1` [Nuflor], the lameness was “reduced lameness” and the “reduction of mass size” value was “approximately ⅓”.
